Test results reported in PubChem BioAssay AID2060895 (Molecular Pharmacology Branch, DTP, NCI, 2025).

Test system: PDC 899932-113-R3-J6 complex spheroid viability
Assay: Anticancer human tumor 899932-113-R3-J6-PDC patient-derived melanoma cell line growth inhibition [RAS]
Conditions: for IC50: curve of first compound; for viability, T/C: stronger effect = lower value; active = viability on the fitted dose curve at most 10% of control; inactive = the rest
In short: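 Multi-cell-type spheroids: tumor cells plus HUVEC endothelial cells and mesenchymal stem cells. RAS-pathway inhibitors were combined with targeted agents, each dosed in half-log steps down from clinical Cmax, or from 10 microM when Cmax was unknown.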

[1] = second compound 0.000949 µM, first compound 0.000949 µM
[2] = second compound 0.000949 µM, first compound 0.003 µM
[3] = second compound 0.000949 µM, first compound 0.00949 µM
[4] = second compound 0.000949 µM, first compound 0.03 µM
[5] = second compound 0.000949 µM, first compound 0.0949 µM
[6] = second compound 0.000949 µM, first compound 0.3 µM
[7] = second compound 0.003 µM, first compound 0.000949 µM
[8] = second compound 0.003 µM, first compound 0.003 µM
[9] = second compound 0.003 µM, first compound 0.00949 µM
[10] = second compound 0.003 µM, first compound 0.03 µM
[11] = second compound 0.003 µM, first compound 0.0949 µM
[12] = second compound 0.003 µM, first compound 0.3 µM
[13] = second compound 0.00949 µM, first compound 0.000949 µM
[14] = second compound 0.00949 µM, first compound 0.003 µM
[15] = second compound 0.00949 µM, first compound 0.00949 µM
[16] = second compound 0.00949 µM, first compound 0.03 µM
[17] = second compound 0.00949 µM, first compound 0.0949 µM
[18] = second compound 0.00949 µM, first compound 0.3 µM
[19] = second compound 0.03 µM, first compound 0.000949 µM
[20] = second compound 0.03 µM, first compound 0.003 µM
[21] = second compound 0.03 µM, first compound 0.00949 µM
[22] = second compound 0.03 µM, first compound 0.03 µM
[23] = second compound 0.03 µM, first compound 0.0949 µM
[24] = second compound 0.03 µM, first compound 0.3 µM
[25] = second compound 0.0949 µM, first compound 0.000949 µM
[26] = second compound 0.0949 µM, first compound 0.003 µM
[27] = second compound 0.0949 µM, first compound 0.00949 µM
[28] = second compound 0.0949 µM, first compound 0.03 µM
[29] = second compound 0.0949 µM, first compound 0.0949 µM
[30] = second compound 0.0949 µM, first compound 0.3 µM
[31] = second compound 0.3 µM, first compound 0.000949 µM
[32] = second compound 0.3 µM, first compound 0.003 µM
[33] = second compound 0.3 µM, first compound 0.00949 µM
[34] = second compound 0.3 µM, first compound 0.03 µM
[35] = second compound 0.3 µM, first compound 0.0949 µM
[36] = second compound 0.3 µM, first compound 0.3 µM
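For viability, T/C in this document: spheroids exposed to agents for seven days before readout; 100% = DMSO vehicle control wells.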

CCc1c2c(nc3ccc(O)cc13)-c1cc3c(c(=O)n1C2)COC(=O)[C@]3(O)CC + CCn1c(-c2cccnc2C(C)OC)c2c3cc(ccc31)N1CCOC(CC(NC(=O)C(C(C)C)N(C)C(=O)C3(F)CCN(C(=O)C#CC(C)(C)N(C)C)CC3)C(=O)N3CCCC(N3)C(=O)OCC(C)(C)C2)C1
19.5 nM: IC50 (second compound 0.000949 µM)
15.7 nM: IC50 (second compound 0.0949 µM)
33.6 nM: IC50 (second compound 0.00949 µM) | IC50 (second compound 0.03 µM)
inactive: viability, T/C [1] 93.4% | viability, T/C [2] 72% | viability, T/C [3] 56.4% | viability, T/C [4] 46.1% | viability, T/C [5] 39.9% | viability, T/C [6] 32.3% | viability, T/C [7] 95.3% | viability, T/C [8] 69.1% | viability, T/C [9] 57.8% | viability, T/C [10] 46.7% | viability, T/C [11] 42.2% | viability, T/C [12] 31.1% | viability, T/C [13] 93.8% | viability, T/C [14] 78.3% | viability, T/C [15] 61.4% | viability, T/C [16] 53.6% | viability, T/C [17] 39.1% | viability, T/C [18] 30.8% | viability, T/C [19] 93.7% | viability, T/C [20] 83.6% | viability, T/C [21] 59.1% | viability, T/C [22] 52.7% | viability, T/C [23] 41.9% | viability, T/C [24] 29.7% | viability, T/C [25] 88.3% | viability, T/C [26] 66.8% | viability, T/C [27] 54.1% | viability, T/C [28] 45.4% | viability, T/C [29] 39.1% | viability, T/C [30] 31.5% | viability, T/C [31] 71.1% | viability, T/C [32] 66.5% | viability, T/C [33] 52.8% | viability, T/C [34] 42.9% | viability, T/C [35] 42.8% | viability, T/C [36] 32.2%
19.9 nM: IC50 (second compound 0.003 µM)
17.2 nM: IC50 (second compound 0.3 µM)

CC1(C)CCC(Nc2ncc(C(F)(F)F)c(-c3c[nH]c4c(P(C)(C)=O)c(C#N)ccc34)n2)CN1 (stereo unspecified) + CCn1c(-c2cccnc2C(C)OC)c2c3cc(ccc31)N1CCOC(CC(NC(=O)C(C(C)C)N(C)C(=O)C3(F)CCN(C(=O)C#CC(C)(C)N(C)C)CC3)C(=O)N3CCCC(N3)C(=O)OCC(C)(C)C2)C1
26.8 nM: IC50 (second compound 0.03 µM)
20.1 nM: IC50 (second compound 0.003 µM)
18.8 nM: IC50 (second compound 0.3 µM)
25.9 nM: IC50 (second compound 0.000949 µM)
21.6 nM: IC50 (second compound 0.00949 µM)
inactive: viability, T/C [1] 105% | viability, T/C [2] 75.8% | viability, T/C [3] 62.9% | viability, T/C [4] 52.4% | viability, T/C [5] 34% | viability, T/C [6] 15.1% | viability, T/C [7] 112% | viability, T/C [8] 78.6% | viability, T/C [9] 61.3% | viability, T/C [10] 43.4% | viability, T/C [11] 37.8% | viability, T/C [12] 15.5% | viability, T/C [13] 98.1% | viability, T/C [14] 86.6% | viability, T/C [15] 61.9% | viability, T/C [16] 41% | viability, T/C [17] 34.4% | viability, T/C [18] 15% | viability, T/C [19] 104% | viability, T/C [20] 88.2% | viability, T/C [21] 64.7% | viability, T/C [22] 46.5% | viability, T/C [23] 36.2% | viability, T/C [24] 20.2% | viability, T/C [25] 100% | viability, T/C [26] 75.6% | viability, T/C [27] 59.8% | viability, T/C [28] 47.4% | viability, T/C [29] 35.6% | viability, T/C [30] 20.6% | viability, T/C [31] 79.3% | viability, T/C [32] 71.8% | viability, T/C [33] 57.1% | viability, T/C [34] 43.5% | viability, T/C [35] 37.4% | viability, T/C [36] 28.4%
22.5 nM: IC50 (second compound 0.0949 µM)

CCN1CCN(Cc2ccc(Nc3ncc(F)c(-c4cc(F)c5nc(C)n(C(C)C)c5c4)n3)nc2)CC1 + C=CC(=O)N1CCN(c2nc(OCC3CCCN3C)nc3c(F)c(-c4nc(N)cc(C)c4C(F)(F)F)c(Cl)cc23)C(C)C1
414 nM: IC50 (second compound 0.00316 µM)
457 nM: IC50 (second compound 0.01 µM)
467 nM: IC50 (second compound 0.316 µM)
429 nM: IC50 (second compound 0.1 µM)
447 nM: IC50 (second compound 0.0316 µM)
inactive: viability, T/C (second compound 0.00316 µM, first compound 0.00316 µM) 102% | viability, T/C (second compound 0.00316 µM, first compound 0.01 µM) 92.3% | viability, T/C (second compound 0.00316 µM, first compound 0.0316 µM) 88.7% | viability, T/C (second compound 0.00316 µM, first compound 0.1 µM) 78% | viability, T/C (second compound 0.00316 µM, first compound 0.316 µM) 62.2% | viability, T/C (second compound 0.00316 µM, first compound 1 µM) 18.8% | viability, T/C (second compound 0.01 µM, first compound 0.00316 µM) 99.9% | viability, T/C (second compound 0.01 µM, first compound 0.01 µM) 98.5% | viability, T/C (second compound 0.01 µM, first compound 0.0316 µM) 95.6% | viability, T/C (second compound 0.01 µM, first compound 0.1 µM) 85.5% | viability, T/C (second compound 0.01 µM, first compound 0.316 µM) 63% | viability, T/C (second compound 0.01 µM, first compound 1 µM) 22.6% | viability, T/C (second compound 0.0316 µM, first compound 0.00316 µM) 98.4% | viability, T/C (second compound 0.0316 µM, first compound 0.01 µM) 101% | viability, T/C (second compound 0.0316 µM, first compound 0.0316 µM) 103% | viability, T/C (second compound 0.0316 µM, first compound 0.1 µM) 89.5% | viability, T/C (second compound 0.0316 µM, first compound 0.316 µM) 63% | viability, T/C (second compound 0.0316 µM, first compound 1 µM) 20.6% | viability, T/C (second compound 0.1 µM, first compound 0.00316 µM) 109% | viability, T/C (second compound 0.1 µM, first compound 0.01 µM) 94% | viability, T/C (second compound 0.1 µM, first compound 0.0316 µM) 85.7% | viability, T/C (second compound 0.1 µM, first compound 0.1 µM) 83% | viability, T/C (second compound 0.1 µM, first compound 0.316 µM) 61.2% | viability, T/C (second compound 0.1 µM, first compound 1 µM) 24% | viability, T/C (second compound 0.316 µM, first compound 0.00316 µM) 101% | viability, T/C (second compound 0.316 µM, first compound 0.01 µM) 106% | viability, T/C (second compound 0.316 µM, first compound 0.0316 µM) 90.5% | viability, T/C (second compound 0.316 µM, first compound 0.1 µM) 81% | viability, T/C (second compound 0.316 µM, first compound 0.316 µM) 65.9% | viability, T/C (second compound 0.316 µM, first compound 1 µM) 23.9% | viability, T/C (second compound 1 µM, first compound 0.00316 µM) 107% | viability, T/C (second compound 1 µM, first compound 0.01 µM) 104% | viability, T/C (second compound 1 µM, first compound 0.0316 µM) 93% | viability, T/C (second compound 1 µM, first compound 0.1 µM) 72.8% | viability, T/C (second compound 1 µM, first compound 0.316 µM) 64.3% | viability, T/C (second compound 1 µM, first compound 1 µM) 18%
393 nM: IC50 (second compound 1 µM)
